According to ChEMBL document CHEMBL5442175, “EUbOPEN Chemogenomics Library - PDSP Secondary Binding” (2024):
Structures can show the parent of a compound that is named as a salt. One block for each compound: values may come before it.

Assays:
[1] = target: Sodium-dependent noradrenaline transporter (Homo sapiens, UniProt P23975); test: PDSP Secondary Binding target: SLC6A2 - Compounds are tested at 10 uM concentration, plate are incubated at room temperature in the dark for 90 minutes. Reaction are stopped by vacuum filtration onto 0.3% polyethyleneimine soaked filter mats using Filtermate harvester. Scintillation cocktail is then melted onto microwave-dried filters on a hot plate and the radio activity is counted in Microbia counter.
[2] = target: Sodium-dependent serotonin transporter (Homo sapiens, UniProt P31645); test: PDSP Secondary Binding target: SLC6A4 - Compounds are tested at 10 uM concentration, plate are incubated at room temperature in the dark for 90 minutes. Reaction are stopped by vacuum filtration onto 0.3% polyethyleneimine soaked filter mats using Filtermate harvester. Scintillation cocktail is then melted onto microwave-dried filters on a hot plate and the radio activity is counted in Microbia counter.
D(3) dopamine receptor = D(3) dopamine receptor (Homo sapiens, UniProt P35462); test: PDSP Secondary Binding target: DRD3 - Compounds are tested at 10 uM concentration, plate are incubated at room temperature in the dark for 90 minutes. Reaction are stopped by vacuum filtration onto 0.3% polyethyleneimine soaked filter mats using Filtermate harvester. Scintillation cocktail is then melted onto microwave-dried filters on a hot plate and the radio activity is counted in Microbia counter.
[3] = target: 5-hydroxytryptamine receptor 1B (Homo sapiens, UniProt P28222); test: PDSP Secondary Binding target: HTR1B - Compounds are tested at 10 uM concentration, plate are incubated at room temperature in the dark for 90 minutes. Reaction are stopped by vacuum filtration onto 0.3% polyethyleneimine soaked filter mats using Filtermate harvester. Scintillation cocktail is then melted onto microwave-dried filters on a hot plate and the radio activity is counted in Microbia counter.
[4] = target: 5-hydroxytryptamine receptor 6 (Homo sapiens, UniProt P50406); test: PDSP Secondary Binding target: HTR6 - Compounds are tested at 10 uM concentration, plate are incubated at room temperature in the dark for 90 minutes. Reaction are stopped by vacuum filtration onto 0.3% polyethyleneimine soaked filter mats using Filtermate harvester. Scintillation cocktail is then melted onto microwave-dried filters on a hot plate and the radio activity is counted in Microbia counter.
D(4) dopamine receptor = target: T1, D(4) dopamine receptor (Homo sapiens, UniProt P21917); test: PDSP Secondary Binding target: DRD4 - Compounds are tested at 10 uM concentration, plate are incubated at room temperature in the dark for 90 minutes. Reaction are stopped by vacuum filtration onto 0.3% polyethyleneimine soaked filter mats using Filtermate harvester. Scintillation cocktail is then melted onto microwave-dried filters on a hot plate and the radio activity is counted in Microbia counter.
T1 sequence (P21917 whole entry): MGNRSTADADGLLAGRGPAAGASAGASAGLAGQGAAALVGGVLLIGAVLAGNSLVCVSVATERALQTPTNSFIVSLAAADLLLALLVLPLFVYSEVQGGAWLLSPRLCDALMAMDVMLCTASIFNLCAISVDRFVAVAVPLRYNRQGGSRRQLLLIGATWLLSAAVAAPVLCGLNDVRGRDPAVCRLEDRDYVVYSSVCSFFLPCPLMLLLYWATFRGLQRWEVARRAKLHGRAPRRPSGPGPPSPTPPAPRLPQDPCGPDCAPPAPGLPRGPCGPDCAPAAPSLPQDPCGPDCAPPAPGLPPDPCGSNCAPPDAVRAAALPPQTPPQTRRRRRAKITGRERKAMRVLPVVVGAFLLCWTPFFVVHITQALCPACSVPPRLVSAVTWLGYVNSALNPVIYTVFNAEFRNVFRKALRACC

[5] = target: T2, Alpha-1B adrenergic receptor (Homo sapiens, UniProt P35368); test: PDSP Secondary Binding target: ADRA1B - Compounds are tested at 10 uM concentration, plate are incubated at room temperature in the dark for 90 minutes. Reaction are stopped by vacuum filtration onto 0.3% polyethyleneimine soaked filter mats using Filtermate harvester. Scintillation cocktail is then melted onto microwave-dried filters on a hot plate and the radio activity is counted in Microbia counter.
T2 sequence (P35368 whole entry): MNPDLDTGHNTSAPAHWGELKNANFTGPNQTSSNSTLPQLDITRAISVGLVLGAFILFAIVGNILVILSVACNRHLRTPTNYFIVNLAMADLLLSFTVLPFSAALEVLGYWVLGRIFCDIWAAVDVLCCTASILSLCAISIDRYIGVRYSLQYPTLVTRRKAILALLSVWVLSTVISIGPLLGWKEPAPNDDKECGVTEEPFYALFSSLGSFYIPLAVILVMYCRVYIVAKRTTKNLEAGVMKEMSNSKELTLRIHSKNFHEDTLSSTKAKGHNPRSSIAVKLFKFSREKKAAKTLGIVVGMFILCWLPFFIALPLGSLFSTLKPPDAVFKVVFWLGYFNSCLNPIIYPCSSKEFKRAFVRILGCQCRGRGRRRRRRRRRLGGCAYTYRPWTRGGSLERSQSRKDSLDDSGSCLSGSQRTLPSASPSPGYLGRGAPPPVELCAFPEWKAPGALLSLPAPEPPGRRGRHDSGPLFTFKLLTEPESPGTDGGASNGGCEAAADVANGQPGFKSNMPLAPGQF

[6] = target: T3, Alpha-1D adrenergic receptor (Homo sapiens, UniProt P25100); test: PDSP Secondary Binding target: ADRA1D - Compounds are tested at 10 uM concentration, plate are incubated at room temperature in the dark for 90 minutes. Reaction are stopped by vacuum filtration onto 0.3% polyethyleneimine soaked filter mats using Filtermate harvester. Scintillation cocktail is then melted onto microwave-dried filters on a hot plate and the radio activity is counted in Microbia counter.
T3 sequence (P25100 whole entry): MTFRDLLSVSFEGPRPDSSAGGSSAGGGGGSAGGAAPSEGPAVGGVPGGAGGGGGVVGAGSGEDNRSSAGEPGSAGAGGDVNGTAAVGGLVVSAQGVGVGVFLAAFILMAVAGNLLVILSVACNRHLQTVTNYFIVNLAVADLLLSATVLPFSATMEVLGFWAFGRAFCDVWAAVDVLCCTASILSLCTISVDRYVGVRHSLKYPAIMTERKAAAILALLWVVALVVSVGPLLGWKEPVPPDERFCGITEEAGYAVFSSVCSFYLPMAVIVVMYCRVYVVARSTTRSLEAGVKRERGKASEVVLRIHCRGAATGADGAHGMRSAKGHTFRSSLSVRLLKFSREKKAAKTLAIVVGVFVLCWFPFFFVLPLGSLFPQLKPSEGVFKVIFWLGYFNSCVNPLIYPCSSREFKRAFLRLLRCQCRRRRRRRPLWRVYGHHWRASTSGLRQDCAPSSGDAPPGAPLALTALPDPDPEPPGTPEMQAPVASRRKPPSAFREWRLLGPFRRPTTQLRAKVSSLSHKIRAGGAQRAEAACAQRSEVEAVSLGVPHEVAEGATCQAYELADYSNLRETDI

[7] = target: Sigma intracellular receptor 2 (Homo sapiens, UniProt Q5BJF2); test: PDSP Secondary Binding target: TMEM97 - Compounds are tested at 10 uM concentration, plate are incubated at room temperature in the dark for 90 minutes. Reaction are stopped by vacuum filtration onto 0.3% polyethyleneimine soaked filter mats using Filtermate harvester. Scintillation cocktail is then melted onto microwave-dried filters on a hot plate and the radio activity is counted in Microbia counter.
[8] = target: 5-hydroxytryptamine receptor 7 (Homo sapiens, UniProt P34969); test: PDSP Secondary Binding target: HTR7 - Compounds are tested at 10 uM concentration, plate are incubated at room temperature in the dark for 90 minutes. Reaction are stopped by vacuum filtration onto 0.3% polyethyleneimine soaked filter mats using Filtermate harvester. Scintillation cocktail is then melted onto microwave-dried filters on a hot plate and the radio activity is counted in Microbia counter.
[9] = target: T4, 5-hydroxytryptamine receptor 2C (Homo sapiens, UniProt P28335); test: PDSP Secondary Binding target: HTR2C - Compounds are tested at 10 uM concentration, plate are incubated at room temperature in the dark for 90 minutes. Reaction are stopped by vacuum filtration onto 0.3% polyethyleneimine soaked filter mats using Filtermate harvester. Scintillation cocktail is then melted onto microwave-dried filters on a hot plate and the radio activity is counted in Microbia counter.
T4 sequence (P28335 whole entry): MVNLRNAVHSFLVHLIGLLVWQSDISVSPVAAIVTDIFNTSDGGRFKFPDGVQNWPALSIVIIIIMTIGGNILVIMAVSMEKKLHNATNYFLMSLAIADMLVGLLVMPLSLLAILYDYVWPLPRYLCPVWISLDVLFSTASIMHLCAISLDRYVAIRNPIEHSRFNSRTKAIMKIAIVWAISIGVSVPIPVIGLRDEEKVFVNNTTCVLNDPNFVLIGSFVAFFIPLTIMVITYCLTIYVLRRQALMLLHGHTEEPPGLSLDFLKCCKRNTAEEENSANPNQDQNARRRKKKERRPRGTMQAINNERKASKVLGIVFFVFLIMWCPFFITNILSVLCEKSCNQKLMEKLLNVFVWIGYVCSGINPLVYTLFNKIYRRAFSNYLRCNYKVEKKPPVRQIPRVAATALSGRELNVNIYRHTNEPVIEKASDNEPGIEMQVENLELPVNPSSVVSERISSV

[10] = target: T5, Alpha-2A adrenergic receptor (Homo sapiens, UniProt P08913); test: PDSP Secondary Binding target: ADRA2A - Compounds are tested at 10 uM concentration, plate are incubated at room temperature in the dark for 90 minutes. Reaction are stopped by vacuum filtration onto 0.3% polyethyleneimine soaked filter mats using Filtermate harvester. Scintillation cocktail is then melted onto microwave-dried filters on a hot plate and the radio activity is counted in Microbia counter.
T5 sequence (P08913 whole entry): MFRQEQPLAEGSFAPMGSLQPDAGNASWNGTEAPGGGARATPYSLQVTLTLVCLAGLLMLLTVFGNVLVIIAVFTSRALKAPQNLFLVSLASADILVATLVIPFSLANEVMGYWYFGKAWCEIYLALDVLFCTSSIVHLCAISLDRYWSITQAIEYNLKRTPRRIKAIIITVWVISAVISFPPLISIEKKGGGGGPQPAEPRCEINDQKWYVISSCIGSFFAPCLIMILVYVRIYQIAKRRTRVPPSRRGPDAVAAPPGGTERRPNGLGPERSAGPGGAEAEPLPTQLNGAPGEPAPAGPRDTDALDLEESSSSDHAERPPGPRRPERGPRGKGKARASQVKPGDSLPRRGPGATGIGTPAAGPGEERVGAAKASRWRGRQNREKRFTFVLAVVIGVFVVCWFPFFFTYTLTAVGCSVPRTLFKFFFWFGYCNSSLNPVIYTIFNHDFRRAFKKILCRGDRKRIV

[11] = target: 5-hydroxytryptamine receptor 1D (Homo sapiens, UniProt P28221); test: PDSP Secondary Binding target: HTR1D - Compounds are tested at 10 uM concentration, plate are incubated at room temperature in the dark for 90 minutes. Reaction are stopped by vacuum filtration onto 0.3% polyethyleneimine soaked filter mats using Filtermate harvester. Scintillation cocktail is then melted onto microwave-dried filters on a hot plate and the radio activity is counted in Microbia counter.
[12] = target: T6, Alpha-2B adrenergic receptor (Homo sapiens, UniProt P18089); test: PDSP Secondary Binding target: ADRA2B - Compounds are tested at 10 uM concentration, plate are incubated at room temperature in the dark for 90 minutes. Reaction are stopped by vacuum filtration onto 0.3% polyethyleneimine soaked filter mats using Filtermate harvester. Scintillation cocktail is then melted onto microwave-dried filters on a hot plate and the radio activity is counted in Microbia counter.
T6 sequence (P18089 whole entry): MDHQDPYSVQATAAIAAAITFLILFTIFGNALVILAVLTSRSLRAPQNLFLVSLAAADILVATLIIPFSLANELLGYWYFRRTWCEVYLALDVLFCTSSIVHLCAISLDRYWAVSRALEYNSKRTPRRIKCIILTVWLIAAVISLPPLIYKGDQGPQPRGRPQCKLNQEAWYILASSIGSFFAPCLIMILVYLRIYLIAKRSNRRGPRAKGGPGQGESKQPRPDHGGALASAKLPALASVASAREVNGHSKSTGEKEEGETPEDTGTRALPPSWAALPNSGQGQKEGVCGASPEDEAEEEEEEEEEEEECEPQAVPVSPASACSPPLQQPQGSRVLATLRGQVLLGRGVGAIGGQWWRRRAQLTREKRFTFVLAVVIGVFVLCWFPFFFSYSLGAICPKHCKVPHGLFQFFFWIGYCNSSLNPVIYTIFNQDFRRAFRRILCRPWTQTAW

[13] = target: Sigma non-opioid intracellular receptor 1 (Homo sapiens, UniProt Q99720); test: PDSP Secondary Binding target: SIGMAR1 - Compounds are tested at 10 uM concentration, plate are incubated at room temperature in the dark for 90 minutes. Reaction are stopped by vacuum filtration onto 0.3% polyethyleneimine soaked filter mats using Filtermate harvester. Scintillation cocktail is then melted onto microwave-dried filters on a hot plate and the radio activity is counted in Microbia counter.
[14] = target: Kappa-type opioid receptor (Homo sapiens, UniProt P41145); test: PDSP Secondary Binding target: OPRK1 - Compounds are tested at 10 uM concentration, plate are incubated at room temperature in the dark for 90 minutes. Reaction are stopped by vacuum filtration onto 0.3% polyethyleneimine soaked filter mats using Filtermate harvester. Scintillation cocktail is then melted onto microwave-dried filters on a hot plate and the radio activity is counted in Microbia counter.
Chain of Kappa-type opioid receptor (P41145 whole entry): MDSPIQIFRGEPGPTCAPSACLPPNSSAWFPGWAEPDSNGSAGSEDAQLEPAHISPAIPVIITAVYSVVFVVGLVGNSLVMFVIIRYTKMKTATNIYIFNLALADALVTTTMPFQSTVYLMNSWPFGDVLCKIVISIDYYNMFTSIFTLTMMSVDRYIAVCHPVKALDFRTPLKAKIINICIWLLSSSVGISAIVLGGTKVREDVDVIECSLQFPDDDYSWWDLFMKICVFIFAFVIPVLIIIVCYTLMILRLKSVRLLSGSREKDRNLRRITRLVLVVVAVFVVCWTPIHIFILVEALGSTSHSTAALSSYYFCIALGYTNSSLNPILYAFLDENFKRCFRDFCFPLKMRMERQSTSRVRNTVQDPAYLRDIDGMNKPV

Chain of Sigma intracellular receptor 2 (Q5BJF2 whole entry): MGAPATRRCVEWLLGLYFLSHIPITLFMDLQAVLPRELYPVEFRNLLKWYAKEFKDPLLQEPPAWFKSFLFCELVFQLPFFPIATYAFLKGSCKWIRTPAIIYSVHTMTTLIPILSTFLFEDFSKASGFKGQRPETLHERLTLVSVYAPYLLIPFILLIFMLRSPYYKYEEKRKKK
Chain of D(3) dopamine receptor (P35462 whole entry): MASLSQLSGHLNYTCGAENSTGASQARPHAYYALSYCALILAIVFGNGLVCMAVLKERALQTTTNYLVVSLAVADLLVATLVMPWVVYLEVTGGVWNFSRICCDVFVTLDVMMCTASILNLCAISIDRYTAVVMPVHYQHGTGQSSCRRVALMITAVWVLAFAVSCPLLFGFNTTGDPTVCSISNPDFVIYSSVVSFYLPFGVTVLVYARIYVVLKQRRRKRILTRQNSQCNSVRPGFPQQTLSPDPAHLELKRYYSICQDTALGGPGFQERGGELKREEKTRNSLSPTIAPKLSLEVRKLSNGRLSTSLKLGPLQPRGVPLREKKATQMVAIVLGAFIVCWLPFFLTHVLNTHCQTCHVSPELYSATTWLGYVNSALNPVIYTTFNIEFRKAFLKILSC
Chain of 5-hydroxytryptamine receptor 1B (P28222 whole entry): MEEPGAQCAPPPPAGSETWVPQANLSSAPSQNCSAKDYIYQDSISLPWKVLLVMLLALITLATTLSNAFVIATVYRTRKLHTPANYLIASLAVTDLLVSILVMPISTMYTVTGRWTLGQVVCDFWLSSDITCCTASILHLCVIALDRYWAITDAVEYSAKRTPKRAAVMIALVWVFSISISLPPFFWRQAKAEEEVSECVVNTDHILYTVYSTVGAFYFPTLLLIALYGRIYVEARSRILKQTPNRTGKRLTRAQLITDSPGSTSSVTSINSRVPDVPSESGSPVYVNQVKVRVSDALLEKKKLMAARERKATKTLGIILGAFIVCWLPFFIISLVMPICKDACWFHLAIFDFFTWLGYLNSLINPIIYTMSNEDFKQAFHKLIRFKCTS
Chain of Sodium-dependent noradrenaline transporter (P23975 whole entry): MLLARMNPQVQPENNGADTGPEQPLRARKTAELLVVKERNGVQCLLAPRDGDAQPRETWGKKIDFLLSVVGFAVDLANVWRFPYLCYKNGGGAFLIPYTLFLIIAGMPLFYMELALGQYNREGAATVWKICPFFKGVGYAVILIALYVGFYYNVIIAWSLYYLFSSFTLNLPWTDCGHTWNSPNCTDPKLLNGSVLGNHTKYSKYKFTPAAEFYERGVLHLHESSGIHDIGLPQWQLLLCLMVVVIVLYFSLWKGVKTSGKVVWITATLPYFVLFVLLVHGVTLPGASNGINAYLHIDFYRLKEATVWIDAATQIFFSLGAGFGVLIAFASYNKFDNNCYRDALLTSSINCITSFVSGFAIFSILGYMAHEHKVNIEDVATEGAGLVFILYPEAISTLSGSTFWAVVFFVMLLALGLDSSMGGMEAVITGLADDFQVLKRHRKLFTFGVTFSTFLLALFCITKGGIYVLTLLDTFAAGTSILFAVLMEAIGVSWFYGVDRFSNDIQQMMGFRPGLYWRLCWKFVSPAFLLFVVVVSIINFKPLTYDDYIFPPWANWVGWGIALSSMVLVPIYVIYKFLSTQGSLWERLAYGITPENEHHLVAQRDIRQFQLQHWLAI
Chain of 5-hydroxytryptamine receptor 7 (P34969 whole entry): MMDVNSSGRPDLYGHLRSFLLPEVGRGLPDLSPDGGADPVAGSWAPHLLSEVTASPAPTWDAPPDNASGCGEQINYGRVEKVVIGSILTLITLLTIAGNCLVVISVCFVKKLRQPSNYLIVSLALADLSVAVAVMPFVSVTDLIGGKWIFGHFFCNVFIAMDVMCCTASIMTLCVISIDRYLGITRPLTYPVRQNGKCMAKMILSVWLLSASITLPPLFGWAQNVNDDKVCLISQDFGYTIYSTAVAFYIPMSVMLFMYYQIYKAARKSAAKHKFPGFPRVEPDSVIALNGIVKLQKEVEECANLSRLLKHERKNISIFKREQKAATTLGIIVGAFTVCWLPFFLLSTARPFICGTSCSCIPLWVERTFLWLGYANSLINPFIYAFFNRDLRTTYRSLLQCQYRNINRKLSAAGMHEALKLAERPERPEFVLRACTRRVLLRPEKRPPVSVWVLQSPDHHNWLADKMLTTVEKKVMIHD
Chain of Sigma non-opioid intracellular receptor 1 (Q99720 whole entry): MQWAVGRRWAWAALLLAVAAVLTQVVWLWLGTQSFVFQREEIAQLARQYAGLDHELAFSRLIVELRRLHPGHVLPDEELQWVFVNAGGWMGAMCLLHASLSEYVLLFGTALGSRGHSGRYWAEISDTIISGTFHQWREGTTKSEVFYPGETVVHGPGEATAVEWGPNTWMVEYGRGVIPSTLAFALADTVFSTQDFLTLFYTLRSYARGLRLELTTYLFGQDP
Chain of 5-hydroxytryptamine receptor 6 (P50406 whole entry): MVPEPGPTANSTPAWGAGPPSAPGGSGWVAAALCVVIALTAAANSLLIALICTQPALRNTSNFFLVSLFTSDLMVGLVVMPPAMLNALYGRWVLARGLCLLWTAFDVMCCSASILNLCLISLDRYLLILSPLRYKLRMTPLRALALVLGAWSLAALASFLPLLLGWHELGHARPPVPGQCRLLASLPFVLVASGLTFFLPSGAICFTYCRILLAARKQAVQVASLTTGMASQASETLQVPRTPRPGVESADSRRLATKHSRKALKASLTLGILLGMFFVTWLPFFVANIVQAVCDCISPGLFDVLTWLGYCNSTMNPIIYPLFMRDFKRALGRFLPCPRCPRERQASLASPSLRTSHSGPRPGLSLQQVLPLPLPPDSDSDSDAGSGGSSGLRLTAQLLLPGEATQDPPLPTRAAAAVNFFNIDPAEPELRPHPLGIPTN
Chain of 5-hydroxytryptamine receptor 1D (P28221 whole entry): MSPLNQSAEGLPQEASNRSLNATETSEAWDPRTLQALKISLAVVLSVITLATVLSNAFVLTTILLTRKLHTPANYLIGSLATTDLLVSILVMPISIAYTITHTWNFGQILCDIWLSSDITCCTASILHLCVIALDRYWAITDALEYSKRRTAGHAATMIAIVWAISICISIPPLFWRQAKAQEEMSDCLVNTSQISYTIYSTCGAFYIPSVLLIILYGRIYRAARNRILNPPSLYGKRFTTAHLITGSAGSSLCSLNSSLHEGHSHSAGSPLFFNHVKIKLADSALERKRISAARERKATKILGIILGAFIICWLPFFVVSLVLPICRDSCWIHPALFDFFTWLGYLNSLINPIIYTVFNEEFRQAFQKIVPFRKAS
Chain of Sodium-dependent serotonin transporter (P31645 whole entry): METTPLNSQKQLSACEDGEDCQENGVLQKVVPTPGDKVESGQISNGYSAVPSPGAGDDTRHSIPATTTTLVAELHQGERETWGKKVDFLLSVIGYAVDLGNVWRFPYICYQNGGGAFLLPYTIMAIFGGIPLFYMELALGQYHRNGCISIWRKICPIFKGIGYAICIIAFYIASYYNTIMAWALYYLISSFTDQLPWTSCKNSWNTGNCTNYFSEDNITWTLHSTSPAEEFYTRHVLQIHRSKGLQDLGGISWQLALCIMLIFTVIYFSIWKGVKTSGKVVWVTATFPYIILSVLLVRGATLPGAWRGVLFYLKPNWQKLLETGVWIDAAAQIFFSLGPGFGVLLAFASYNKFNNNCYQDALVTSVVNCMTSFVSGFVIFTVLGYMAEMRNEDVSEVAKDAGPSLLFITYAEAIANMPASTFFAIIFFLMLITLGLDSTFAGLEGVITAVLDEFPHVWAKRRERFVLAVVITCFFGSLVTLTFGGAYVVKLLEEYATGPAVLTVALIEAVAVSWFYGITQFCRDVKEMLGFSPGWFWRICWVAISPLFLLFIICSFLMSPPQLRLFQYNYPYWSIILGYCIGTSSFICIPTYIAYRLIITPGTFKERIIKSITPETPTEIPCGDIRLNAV

Ki [1]: > 10000 nM
Ki [3]: 8410 nM
SMILES: C[C@H](CO)Nc1nc(SCc2cccc(Cl)c2F)nc2[nH]c(=O)sc12

Ki [4]: 280 nM
Ki (D(3) dopamine receptor): 559 nM
Ki (D(4) dopamine receptor): 1160 nM
SMILES: COc1ccc(S(=O)(=O)c2cc(OC)ccc2S(=O)(=O)c2ccc([C@H](C)NS(C)(=O)=O)cc2)cc1

Ki [9]: 6950 nM
Ki [5]: 2630 nM
Ki [6]: 1980 nM
Ki [7]: 2780 nM
Ki [8]: 879 nM
SMILES: Clc1cccc(Cl)c1N=C1NCCN1 [CLONIDINE HYDROCHLORIDE]

Second part, the compound before the results:

SMILES: N[C@H](C(=O)O)c1ccc(C(=O)O)c(C(=O)O)c1
Ki [1]: 7550 nM
Ki [2]: 7610 nM
Ki (D(3) dopamine receptor): 2040 nM

SMILES: Brc1c(NC2=NCCN2)ccc2nccnc12
Ki [5]: 4200 nM
Ki [6]: 2110 nM
Ki [7]: 1530 nM
Ki [8]: 1110 nM

SMILES: CCCCCCCCCCCCCCCCOC[C@H](COP(=O)([O-])OCC[N+](C)(C)C)OC(C)=O
Ki [9]: 3080 nM
Ki [5]: 4490 nM
Ki [6]: 2050 nM
Ki [7]: 1820 nM
Ki [10]: > 10000 nM
Ki [11]: 8520 nM
Ki (D(3) dopamine receptor): 1760 nM
Ki [12]: > 10000 nM

SMILES: CC(C)NCC(O)COc1cccc2ccccc12 (stereo unspecified) [PROPRANOLOL HYDROCHLORIDE]
Ki [7]: 353 nM
Ki [4]: 542 nM
Ki [13]: 95.4 nM

SMILES: N#Cc1c(N)nc(SCC(N)=O)c(C#N)c1-c1ccc(OCC2CC2)cc1
Ki [14]: 407 nM
Ki [3]: 6670 nM
Ki [13]: 1000 nM
